For assay [1], the system named is C. albicans CAF2-1 strain. Put plainly: Anti-Candida activity (MIC measurement). The assay is classed as cell-based. Conditions: CAF21STRAIN, minimum inhibitory concentration (MIC) by visual inspection, RPMI 1640, 42 to 48 hours at 35° C. The procedure:
(§1) 1. Anti-Candida Activity and Anti-Aspergillus Activity
(§2) (1) Preparation of Fungal Sample
(§3) For the C. albicans CAF2-1 strain, a fungal suspension from a standing culture for 48 hours at 30° C. in a Sabouraud dextrose liquid culture medium (SDB) was diluted with RPMI 1640 medium to adjust a fungal suspension of 1.2×10^3 cells/mL. For the A. fumigatus Tsukuba strain, −80° C. stored strain was diluted with RPMI 1640 medium to adjust to a fungal suspension of 4.5×10^3 cells/mL.
(§4) (2) Preparation of an Agent Dilution Plate
(§5) Using a U-bottomed 96-well plate, 8 samples/plate (A to H) of sample dilution solutions were prepared. On the 2nd to 12th rows were dispensed 10 μL of dimethyl sulfoxide solution. Weighed sample was dissolved in dimethyl sulfoxide to prepare a 2.5 mg/mL solution, 20 μL of this solution was added to the first row of the prepared plate, and 12 steps of two-fold step dilutions (10 μL of solution+10 μL of dimethyl sulfoxide solution) were performed on the plate. This sample dilution solution was dispensed in an amount of 1 μL into a flat-bottomed 96-well plate for MIC measurement to prepare a sample dilution plate.
(§6) (3) Inoculation of Fungal Suspension and Culture
(§7) The fungal suspension prepared in (1) was used in an amount of 99 μL/well to inoculate the flat-bottomed 96-well plate containing 1 μL/well of the test compound dilution prepared in (2), and standing culture was performed aerobically for 42 to 48 hours at 35° C.
(§8) The following representative compounds prepared in the examples were measured for anti-Candida activity and anti-Aspergillus activity by measurement method in (1).

For assay [2], the system named is A. fumigatus Tsukuba strain. Put plainly: Anti-Aspergillus activity (MIC measurement). The format is cell-based. Conditions: minimum inhibitory concentration (MIC) by visual inspection, RPMI 1640, 42 to 48 hours at 35° C. Here is the method:
as §1, §2, §3, §4, §5, §6, §7, §8

In assay [3] the test system is C. albicans E81022 strain. Briefly: Experimental systemic candidal infection model in mice. The format is in vivo. The conditions noted are these: peroral, 3 times every 4 hours, female ICR mice infected iv with C. albicans E81022, observed until 14 days after infection. The procedure:
2. Experimental Systemic Candidal Infection Model in Mice (1) Preparation of Fungal Inoculant
A standing culture of C. albicans E81022 strain was carried out for 48 hours at 30° C. in Sabouraud dextrose agar medium (SDA), and the recovered fungal cells were suspended in sterilized physiological saline. By counting the fungal number on cytometry plate, the suspension was diluted to 2×10^7 cells/mL with sterilized physiological saline to serve fungal inoculum.
The fungal inoculum was used in amounts of 0.2 mL to inoculate 4.5 to 5.5 week-old female ICR mice in the tail vein (4×10^6 cells/mouse).
From 0.5 to 1 hour after fungal inoculation, 0.2 mL of agent solution (dissolved or suspended in sterilized physiological saline containing 6.5% dimethyl sulfoxide and 3.5% Tween 80) was administered into the stomach using a peroral probe, 3 times every 4 hours. The agent concentration was 2.5 or 10 mg/kg, and the number of animal in one group was five animals.
(4) Determination of Effects
The protective effect was determined by observing life/death until 14 days after infection and calculating the mean survival days.

≈ marks a conversion by molar mass, not a printed value.

For orientation: MIC means the lowest concentration that inhibits growth of the organism.

`Nc1ncccc1-c1nnn(Cc2ccc(OCc3ccccc3)cc2)n1` [Example 5, 3-(2-(4-Benzyloxy-benzyl)-2H-tetrazol-5-yl)-pyridin-2-ylamine]: the minimum inhibitory concentration (MIC) in assay [1] was 0.78 µg/mL (≈ 2.18 µM); in assay [2] it was 1.56 µg/mL (≈ 4.35 µM). Moreover, the “Mean Survival Day (MSD)” value in assay [3] (Dose 10 mg/kg) was found to be 11.8 days.

As to `Nc1ncccc1-c1nnc(Cc2ccc(OCc3ccccc3)cc2)o1` [Example 9], the results for the MIC in assay [1] and in assay [2] were 0.39 µg/mL (≈ 1.09 µM) and 0.78 µg/mL (≈ 2.18 µM), respectively. Further, the results for the “Mean Survival Day (MSD)” value in assay [3] (Dose 2.5 mg/kg) and in assay [3] (Dose 10 mg/kg) were 7.8 days and 10.8 days, respectively.

Take `Nc1ccc(-c2nnn(Cc3ccc(OCc4ccccn4)cc3)n2)c(N)n1` [Example 27, 3-(2-(4-(Pyridin-2-ylmethoxy)-benzyl)-2H-tetrazol-5-yl)-pyridin-2,6-diamine]: the MIC in assay [1] turned out to be 0.2 µg/mL (≈ 0.534 µM); in assay [2], 0.78 µg/mL (≈ 2.08 µM). Moreover, the “Mean Survival Day (MSD)” value is 5.6 days in assay [3] (Dose 2.5 mg/kg) and 12 days in assay [3] (Dose 10 mg/kg).

In the case of `CCCCOCc1ccc(Cn2cc(-c3ccc(COC)nc3N)nn2)cc1` [Example 41, 3-[1-(4-Butoxymethyl-benzyl)-1H-[1,2,3]triazol-4-yl]-6-methoxymethyl-pyridin-2-ylamine], the MIC is 0.39 µg/mL (≈ 1.02 µM) in assay [1] and 1.56 µg/mL (≈ 4.09 µM) in assay [2]. The “Mean Survival Day (MSD)” value in assay [3] (Dose 2.5 mg/kg) was determined as 6.2 days; in assay [3] (Dose 10 mg/kg) it was 11.2 days.

Take `CCCCOCc1ccc(Cn2cc(-c3ccc(N)nc3N)nn2)cc1` [Example 42, 3-(1-(4-Butoxymethyl-benzyl)-1H-[1,2,3]triazol-4-yl)-pyridin-2,6-diamine]: the minimal inhibitory concentration (MIC) came to 0.2 µg/mL (≈ 0.567 µM) in assay [1] and 0.78 µg/mL (≈ 2.21 µM) in assay [2]. Also, the “Mean Survival Day (MSD)” value in assay [3] (Dose 10 mg/kg) was 13.6 days.

As to `Cc1ccc(Cc2ccc(Cn3nnc(-c4cccnc4N)n3)cc2)o1` [Example 53, 3-(2-(4-(5-Methyl-furan-2-ylmethyl)-benzyl)-2H-tetrazol-5-yl)-pyridin-2-ylamine], the MIC in assay [1] was 0.39 µg/mL (≈ 1.13 µM); in assay [2], 0.78 µg/mL (≈ 2.25 µM). Moreover, the “Mean Survival Day (MSD)” value in assay [3] (Dose 2.5 mg/kg) is recorded as 7.6 days; in assay [3] (Dose 10 mg/kg) it was 13.8 days.

The record behind these values is patent publication US8183264B2, “Pyridine derivative substituted by heteroaryl ring, and antifungal agent comprising the same” (Eisai R&D Managment Co., Ltd., priority 2006, dated 2012).
